From ChEMBL document CHEMBL1121737, “Synthesis and evaluation of some stable multisubstrate adducts as specific inhibitors of spermidine synthase” (J Med Chem, 1981) come the findings set out here.

Test [1] addresses T1, Spermidine synthase (Rattus norvegicus) (UniProt Q99MI5).
T1 sequence (whole entry): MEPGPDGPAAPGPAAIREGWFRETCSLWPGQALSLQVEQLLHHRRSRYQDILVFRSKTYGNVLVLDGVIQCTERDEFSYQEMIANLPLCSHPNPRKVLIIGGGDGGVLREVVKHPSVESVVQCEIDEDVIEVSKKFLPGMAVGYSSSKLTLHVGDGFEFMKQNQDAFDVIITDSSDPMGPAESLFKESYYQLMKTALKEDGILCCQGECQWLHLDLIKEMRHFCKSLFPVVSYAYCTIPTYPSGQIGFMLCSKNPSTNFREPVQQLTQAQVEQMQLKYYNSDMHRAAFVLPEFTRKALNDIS
As to the kind of experiment: Inhibition of spermidine synthase at 250 uM concentration of the compound; values are per cent of control.

Test [2] has as its target T1, Spermidine synthase (Rattus norvegicus). Kind of test: Inhibition of spermidine synthase at 100 uM concentration of the compound; values are per cent of control.
Test [3] deals with spermine synthase (Rattus norvegicus). Kind of test: Inhibition of spermine synthase at 100 uM concentration of the compound; values are per cent of control.
The target of test [4] is T1, Spermidine synthase (Rattus norvegicus). Kind of test: Inhibition of spermidine synthase at 50 uM concentration of the compound; values are per cent of control.
In test [5] the test system is spermine synthase (Rattus norvegicus). As to the kind of experiment: Inhibition of spermine synthase at 250 uM concentration of the compound; values are per cent of control.
The test system is the same in test [6]. Kind of test: Inhibition of spermine synthase at 10 uM concentration of the compound; values are per cent of control.
For test [7] the test system is unchanged. Kind of test: Inhibition of spermine synthase at 25 uM concentration of the compound; values are per cent of control.
For test [8], the target named is T1, Spermidine synthase (Rattus norvegicus). Kind of test: Inhibition of spermidine synthase at 25 uM concentration of the compound; values are per cent of control.
Test [9] deals with spermine synthase (Rattus norvegicus). As to the kind of experiment: Inhibition of spermine synthase at 50 uM concentration of the compound; values are per cent of control.
In the next test the target is T2, Spermidine synthase (Rattus norvegicus, UniProt Q99MI5).
T2 sequence (Q99MI5 whole entry): T1 sequence (whole entry)
As to the kind of experiment: Inhibitory activity against spermidine synthase. The following applies: read-out: I50.

Test [10] concerns the target T1, Spermidine synthase (Rattus norvegicus). Kind of test: Inhibition of spermidine synthase at 10 uM concentration of the compound; values are per cent of control.
Test [11] shares this target. As to the kind of experiment: Inhibition of spermidine synthase at 5 uM concentration of the compound; values are per cent of control.

Each structure is given as a SMILES string.

As to `CCCCCC(CC)[S+](C)C[C@H]1O[C@H](n2cnc3c(N)ncnc32)[C@H](O)[C@@H]1O` (stereo partly drawn), the residual activity was 56% in test [1]; 80% in test [2]; 44% in test [3]; 93% in test [4]; 25% in test [5]; 94% in test [6]. The residual activity in test [7] worked out at 88%; in [8], 99%; in test [9] it was 65%; in test [10] it was 98%. Also, the IC50 at Spermidine synthase worked out at 250 µM.
Regarding `C[S+](C[C@H]1O[C@H](n2cnc3c(N)ncnc32)[C@H](O)[C@@H]1O)C(CCN)CCCCCN` (stereo partly drawn), the residual activity in test [1] stood at 4%; in test [11], 84%; in [2], 8%; in test [3], 41%; in [4], 16%; in test [5], 14%. Further, the residual activity in test [6] was 93%; in [8], 31%; in test [9] it was 60%; in [10], 68%. Moreover, the IC50 at Spermidine synthase worked out at 15 µM.
For `NCCCCCC(CCN)SC[C@H]1O[C@@H](n2cnc3c(N)ncnc32)[C@H](O)[C@@H]1O` (stereo partly drawn), the residual activity is 1% in [2], 1% in test [4], 3% in test [8] and 3% in [10].
`CCCCCC(CC)SC[C@H]1OC(n2cnc3c(N)ncnc32)[C@H](O)[C@@H]1O` (stereo partly drawn): the residual activity turned out to be 104% in [2] and 102% in [8].
